Assay results from patent publication US20160220567A1, “COMPOSITION FOR TREATING OR PREVENTING BONE DISEASES, COMPRISING HALOFUGINONE AS ACTIVE INGREDIENT” (THE CATHOLIC UNIVERSITY OF KOREA INDUSTRY-ACADEMIC …, priority 2013, published 2016).

Key:
[1] = system: joint tissue of mouse with arthritis; assay: Degree of joint destruction by immunohistochemical staining of CIA mouse joints; format: in vivo; conditions: CIA mice, according to the concentration of treatment, FIG. 1B
Description: (§1) For the construction of a mouse model with collagen-induced arthritis (hereinafter, referred to as “CIA”), a 6-week old male DBA/1J mouse was subjected to primary immunization by intradermal injection after mixing the bovine type II collagen (hereinafter, referred to as “CII”) and complete Freud's adjuvant (CFA) in an amount of 100 μL, respectively. After a week thereafter, halofuginone was injected intraperitoneally at 3 day intervals at a concentration of 100 μg/kg and 500 μg/kg, respectively (9 weeks).
To examine the therapeutic effect of treating halofuginone of the present invention on arthritis, the mouse prepared in Example <1-1> (the mouse with arthritis injected with halofuginone) was sacrificed and the degree of joint destruction was analyzed via immunohistochemical staining method. The group treated with a solution in which DMSO was diluted in saline was used as the control group.
The immunohistochemical staining method was performed by the process shown below. The joints of the mice group used above were collected, fixed with 10% neutral buffered formalin, the bones were decalcified with EDTA and embedded in paraffin, the joint tissue was prepared into 7 μm-thick slices and attached to slides. […] The immunohistochemical staining method was used in the joints of mice and analyzed under an optical microscope. […]

[2] = system: anti-CII-specific IgG, IgG1, and IgG2a; assay: Type II collagen-specific IgG, IgG1 and IgG2a in sera by ELISA; format: in vivo, mouse; conditions: CIA mice, sera 4 weeks after injection, FIG. 1D
Description: as §1
The concentrations of murine anti-CII-specific IgG, IgG1, and IgG2a were measured by ELISA method by collecting sera from a mouse with arthritis 4 weeks after injecting the mouse with halofuginone (Bethyl Lab Co., Montgomery, Tex., USA). The group treated with a solution in which DMSO was diluted in saline was used as the control group.
The method of measuring the anti-CII-specific IgG, IgG1, and IgG2a antibodies is as follows. The CII was diluted in 0.05M sodium carbonate coating buffer (pH 9.6) at a concentration of 4 μg/mL, coated onto a 96-well microtiter plate, and placed at 4° C. for 18 hours. After removing the coated solution, for the inhibition of non-specific binding, TBS (pH 8.0) containing 1% bovine serum albumin (BSA: Amre-sco, solon, Ohio, USA) was added in an amount of 200 μL thereto and reacted at room temperature for 1 hour. For the measurement of anti-CII-specific IgG, IgG1, and IgG2a antibodies, the specimen was diluted at a 1:1,000 ratio, and in particular, TBS (pH 8.0) containing 1% BSA and 0.05% Tween 20 (Amresco) was used as the diluted solution. Then, the sera sample diluted in advance was added to each well in an amount of 50 μL and reacted at room temperature for 1 hour. […] The absorbance of the resultant was measured at 450 nm using the ELISA reader and the result of antibody measurement was indicated by absorbance itself.

IL-17 and Foxp3 genes = assay: Expression of IL-17 and Foxp3 genes in splenocytes and draining lymph nodes by RT-PCR; format: in vivo, mouse; conditions: mRNA, splenocytes and draining lymph nodes of CIA mice, FIG. 2C
Description: as §1
To examine the effect of halofuginone treatment in an animal model, the RNA in the splenocytes and draining lymph nodes were extracted using the Trizol reagent, and the expression of IL-17and Foxp3 genes was confirmed by RT-PCR.
The real-time PCR was performed using the LightCycler 2.0 System Instrument and the reaction compounds were prepared by mixing 1 μL of each cDNA, 10 μL of premix Ex Taq as an enzyme for the initiation, and each primer pair to a final volume of 20 μL using distilled water. […] The values of cycle threshold (Ct) were analyzed and the amount of mRNA expression for each target was indicated in terms of the amount of beta-actin mRNA expression and the relative quantity. […]

[3] = system: TRAP, NFATc1, b3 integrin, OSCAR, cathepsin K, and MMP9 mRNA; assay: Real-time PCR of factors associated with osteoclast differentiation in bone marrow cells of arthritis animal model; format: in vivo, mouse; conditions: bone marrow cells of CIA mice, RANKL treatment, FIG. 4C
Description: as §1
The real-time PCR was performed using the LightCycler 2.0 System Instrument and the reaction compounds were prepared by mixing 1 μL of each cDNA, 10 μL of premix Ex Taq as an enzyme for the initiation, and each primer pair to a final volume of 20 μL using distilled water. The reaction conditions were: reacted at 95° C. for 10 minutes, followed by a total of 50 cycles consisting of denaturation at 95° C. for 10 seconds, annealing at 60° C. for 5 seconds, and extension at 72° C. for 10 seconds. The values of cycle threshold (Ct) were analyzed and the amount of mRNA expression for each target was indicated in terms of the amount of beta-actin mRNA expression and the relative quantity. The primers used are shown below.
Accordingly, the present inventors isolated bone marrow cells from the joint of the animal model with arthritis, cultured the cells under the stimulation of M-CSF and RANKL for 7 days, and subjected them to TRAP staining using the leukocyte acid phosphatase Kit (387-A, Sigma, St. Louis, Mo., USA) according to the manufacturer's manual.
The primers used are shown below.

Question: Which results are given for `O=C(C[C@H]1NCCC[C@@H]1O)Cn1cnc2cc(Br)c(Cl)cc2c1=O` (racemic) [halofuginone]?
Answer: joint destruction [1]: significantly decrease; concentration of IgG1 within the sera [2]: significantly decreased; concentration of IgG2a within the sera [2]: significantly decreased; concentration of IgG within the sera [2]: significantly decreased; expression of Foxp3 (IL-17 and Foxp3 genes): increased; expression of IL-17 (IL-17 and Foxp3 genes): decreased; mRNA expression level of MMP9 [3]: decreased; mRNA expression level of NFATc1 [3]: decreased; mRNA expression level of OSCAR [3]: decreased; mRNA expression level of TRAP [3]: decreased; mRNA expression level of b3 integrin [3]: decreased; mRNA expression level of cathepsin K [3]: decreased
